Columns and labels:
Format in all cases: in vivo
[1] = tested on: Amaranthus retoflexus (AMARE); assay: Pre-emergence test, glasshouse; conditions: 250 g/ha, evaluated after 13 days, Table B2
Procedure: (§1) Seeds of a variety of test species are sown in standard soil in pots Amaranthus retoflexus (AMARE), Abutilon theophrasti (ABUTH), Setaria faberi (SETFA), Echinochloa crus-galli (ECHCG), Ipomoea hederacea (IPOHE)). After cultivation for one day (pre-emergence) or after 8 days cultivation (post-emergence) under controlled conditions in a glasshouse (at 24/16° C., day/night; 14 hours light; 65% humidity), the plants are sprayed with an aqueous spray solution derived from the formulation of the technical active ingredient in acetone/water (50:50) solution containing 0.5% Tween 20 (polyoxyethelyene sorbitan monolaurate, CAS RN 9005-64-5). Compounds are applied at 250 g/ha unless otherwise stated. The test plants are then grown in a glasshouse under controlled conditions in a glasshouse (at 24/16° C., day/night; 14 hours light; 65% humidity) and watered twice daily. After 13 days for pre and post-emergence, the test is evaluated for the percentage damage caused to the plant. The biological activities are shown in the following table on a five-point scale (5=81-100%; 4=61-80%; 3=41-60%; 2=21-40%; 1=0-20%).

[2] = tested on: Ipomoea hederacea (IPOHE); assay: Pre-emergence test, glasshouse; conditions: 250 g/ha, evaluated after 13 days, Table B2
Procedure: as §1

Setaria faberi (SETFA) [3] = assay: Pre-emergence test, glasshouse; conditions: 250 g/ha, evaluated after 13 days, Table B2
Procedure: as §1

[4] = tested on: Echinochloa crus-galli (ECHCG); assay: Pre-emergence test, glasshouse; conditions: 250 g/ha, evaluated after 13 days, Table B2
Procedure: as §1

[5] = tested on: Amaranthus retoflexus (AMARE); assay: Post-emergence test, glasshouse; conditions: 250 g/ha, evaluated after 13 days, Table B1
Procedure: as §1

[6] = tested on: Ipomoea hederacea (IPOHE); assay: Post-emergence test, glasshouse; conditions: 250 g/ha, evaluated after 13 days, Table B1
Procedure: as §1

Setaria faberi (SETFA) [7] = assay: Post-emergence test, glasshouse; conditions: 250 g/ha, evaluated after 13 days, Table B1
Procedure: as §1

[8] = tested on: Echinochloa crus-galli (ECHCG); assay: Post-emergence test, glasshouse; conditions: 250 g/ha, evaluated after 13 days, Table B1
Procedure: as §1

Fc1cnc(Oc2cc(C(F)(F)F)nn2-c2ccc(C(F)(F)F)cc2)nc1 [Compound 1.021]
percentage damage caused to the plant, AMARE [1]: 5 (5=81-100%)
percentage damage caused to the plant, IPOHE [2]: 2 (2=21-40%)
percentage damage caused to the plant, SETFA (Setaria faberi (SETFA) [3]): 5 (5=81-100%)
percentage damage caused to the plant, ECHCG [4]: 5 (5=81-100%)
percentage damage caused to the plant, AMARE [5]: 4 (4=61-80%)
percentage damage caused to the plant, IPOHE [6]: 4 (4=61-80%)
percentage damage caused to the plant, SETFA (Setaria faberi (SETFA) [7]): 4 (4=61-80%)
percentage damage caused to the plant, ECHCG [8]: 5 (5=81-100%)

Fc1ccccc1-n1nc(C(F)(F)F)cc1Oc1ncc(Cl)cn1 [Compound 1.033]
percentage damage caused to the plant, AMARE [1]: 2 (2=21-40%)
percentage damage caused to the plant, IPOHE [2]: 1 (1=0-20%)
percentage damage caused to the plant, SETFA (Setaria faberi (SETFA) [3]): 1 (1=0-20%)
percentage damage caused to the plant, ECHCG [4]: 1 (1=0-20%)
percentage damage caused to the plant, AMARE [5]: 3 (3=41-60%)
percentage damage caused to the plant, IPOHE [6]: 1 (1=0-20%)
percentage damage caused to the plant, SETFA (Setaria faberi (SETFA) [7]): 1 (1=0-20%)
percentage damage caused to the plant, ECHCG [8]: 1 (1=0-20%)

FC(F)Oc1ccc(-n2nc(C(F)(F)F)cc2Oc2ncc(Cl)cn2)cc1 [Compound 1.028]
percentage damage caused to the plant, AMARE [1]: 2 (2=21-40%)
percentage damage caused to the plant, IPOHE [2]: 1 (1=0-20%)
percentage damage caused to the plant, SETFA (Setaria faberi (SETFA) [3]): 2 (2=21-40%)
percentage damage caused to the plant, ECHCG [4]: 1 (1=0-20%)
percentage damage caused to the plant, AMARE [5]: 4 (4=61-80%)
percentage damage caused to the plant, IPOHE [6]: 1 (1=0-20%)
percentage damage caused to the plant, SETFA (Setaria faberi (SETFA) [7]): 2 (2=21-40%)
percentage damage caused to the plant, ECHCG [8]: 2 (2=21-40%)

Cc1ccc(-n2nc(C(F)(F)F)cc2Oc2ncc(Cl)cn2)cc1 [Compound 1.029]
percentage damage caused to the plant, AMARE [1]: 3 (3=41-60%)
percentage damage caused to the plant, IPOHE [2]: 1 (1=0-20%)
percentage damage caused to the plant, SETFA (Setaria faberi (SETFA) [3]): 4 (4=61-80%)
percentage damage caused to the plant, ECHCG [4]: 4 (4=61-80%)
percentage damage caused to the plant, AMARE [5]: 4 (4=61-80%)
percentage damage caused to the plant, IPOHE [6]: 2 (2=21-40%)
percentage damage caused to the plant, SETFA (Setaria faberi (SETFA) [7]): 2 (2=21-40%)
percentage damage caused to the plant, ECHCG [8]: 2 (2=21-40%)

Cc1ncc(-n2nc(C(F)(F)F)cc2Oc2ncc(Cl)cn2)cn1 [Compound 1.022, 5-chloro-2-[2-(2-methylpyrimidin-5-yl)-5-(trifluoromethyl)pyrazol-3-yl]oxy-pyrimidine]
percentage damage caused to the plant, AMARE [1]: 5 (5=81-100%)
percentage damage caused to the plant, IPOHE [2]: 1 (1=0-20%)
percentage damage caused to the plant, SETFA (Setaria faberi (SETFA) [3]): 5 (5=81-100%)
percentage damage caused to the plant, ECHCG [4]: 4 (4=61-80%)
percentage damage caused to the plant, AMARE [5]: 5 (5=81-100%)
percentage damage caused to the plant, IPOHE [6]: 1 (1=0-20%)
percentage damage caused to the plant, SETFA (Setaria faberi (SETFA) [7]): 4 (4=61-80%)
percentage damage caused to the plant, ECHCG [8]: 4 (4=61-80%)

Cc1cnc(Oc2cc(C(F)(F)F)nn2-c2ccc(C(F)(F)F)cc2)nc1 [Compound 1.020, 5-methyl-2-[5-(trifluoromethyl)-2-[4-(trifluoromethyl)phenyl]pyrazol-3-yl]oxy-pyrimidine]
percentage damage caused to the plant, AMARE [1]: 5 (5=81-100%)
percentage damage caused to the plant, IPOHE [2]: 1 (1=0-20%)
percentage damage caused to the plant, SETFA (Setaria faberi (SETFA) [3]): 5 (5=81-100%)
percentage damage caused to the plant, ECHCG [4]: 5 (5=81-100%)
percentage damage caused to the plant, AMARE [5]: 5 (5=81-100%)
percentage damage caused to the plant, IPOHE [6]: 3 (3=41-60%)
percentage damage caused to the plant, SETFA (Setaria faberi (SETFA) [7]): 4 (4=61-80%)
percentage damage caused to the plant, ECHCG [8]: 4 (4=61-80%)

FC(F)(F)c1ccc(-n2nc(C(F)(F)F)cc2Oc2ncc(Br)cn2)cc1 [Compound 1.036, 5-bromo-2-[5-(trifluoromethyl)-2-[4-(trifluoromethyl)phenyl]pyrazol-3-yl]oxy-pyrimidine]
percentage damage caused to the plant, AMARE [1]: 3 (3=41-60%)
percentage damage caused to the plant, IPOHE [2]: 1 (1=0-20%)
percentage damage caused to the plant, SETFA (Setaria faberi (SETFA) [3]): 4 (4=61-80%)
percentage damage caused to the plant, ECHCG [4]: 4 (4=61-80%)
percentage damage caused to the plant, AMARE [5]: 4 (4=61-80%)
percentage damage caused to the plant, IPOHE [6]: 2 (2=21-40%)
percentage damage caused to the plant, SETFA (Setaria faberi (SETFA) [7]): 1 (1=0-20%)
percentage damage caused to the plant, ECHCG [8]: 1 (1=0-20%)

Source: US12522588B2, “Herbicidal compounds” (SYNGENTA CROP PROTECTION AG, priority 2020, dated 2026)
